From patent publication US20050288347A1, “Certain triazole-based compounds, compositions, and uses thereof” (priority 2004, published 2005)
Entries after “also recorded” stand apart in the source; their conditions may differ. Like-named read-outs stand apart in the source and are kept apart here.

Target: protein kinase
Assay: HTS ATP-utilizing enzyme assay, off-chip mobility-shift format (Caliper HTS 250)
Format: biochemical, human
Details: for Kinase: kinase(s) for which the compound exhibits protein kinase inhibitory activity, active = greater than three-sigma from the mean activity of inactive compounds
How it was run: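 Kinase reactions ran 2.5 h at 20 to 22 °C with test compound at 10 μM, in a HEPES pH 7.5 master buffer containing Triton X-100 and BSA. Peptide substrate and phosphorylated product separated by mobility shift; inhibition normalized to DMSO (0%) and EDTA (100%) controls, with three-sigma thresholds for hits.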

[1] = test compound 10 μM, active = activity greater than three-sigma from the mean of the predominately inactive population for that enzyme

| Structure (SMILES) | Kinase (test compound 10 μM) | protein kinase against which the compound exhibits inhibitory activity (Table 3) [1] | further results |
| --- | --- | --- | --- |
| COc1ccc(-c2nnc(SCC(=O)Nc3cccc(NC(=O)c4ccco4)c3)n2-c2ccccc2)cc1 | PRAK and CHEK2 and PKA |  |  |
| FC(F)(F)Oc1ccc(-c2nnc(SCc3ccncc3)[nH]2)cc1 [4-((5-(4-(trifluoromethoxy)phenyl)-4H-1,2,4-triazol-3-ylthio)methyl)pyridine] |  | FLT-3; also recorded: c-TAK1; also recorded: GSK3-β |  |
| COc1ccccc1-n1c(SCC(O)c2ccccc2)nnc1-c1cccc(Cl)c1 (stereo not shown) |  | ROCK2 |  |
| O=C(CSc1nnc(CSc2nc3ccccc3s2)n1-c1ccccc1)N1CCN(CCO)CC1 | HCK |  |  |
| CCn1c(SCC(=O)c2ccc(OC)cc2)nnc1-c1ccncc1 | PKA and MAPKAPK-2 and MSK1 |  |  |
| CCOc1ccc(NCc2nnc(SCC(=O)Nc3ccccc3Br)n2-c2ccccc2)cc1 | PDGFRR-α and FYN and FLT-3 |  |  |
| COc1ccc(-c2nnc(SCCN3CCOCC3)[nH]2)cc1 [4-(2-(5-(4-methoxyphenyl)-4H-1,2,4-triazol-3-ylthio)ethyl)morpholine] |  | GSK3-α; also recorded: AURORA-A; also recorded: GSK3-β |  |
| COCCCn1c(SCC(=O)Nc2c(C)cccc2C)nnc1-c1ccncc1 | FYN |  |  |
| Clc1cccc(-c2nnc(SCc3ccccc3)[nH]2)c1 [3-(benzylthio)-5-(3-chlorophenyl)-4H-1,2,4-triazole] |  | AURORA-A; also recorded: c-TAK1; also recorded: FLT-3 |  |
| COc1cc2c(cc1NC(=O)CSc1nncn1C)oc1ccccc12 |  | CHEK2 and INSR and AURORA-A |  |
| COc1ccccc1-c1nnc(SCC(=O)Nc2ccccc2)n1C | AURORA-A |  |  |
| O=C(CSc1nnc[nH]1)N1c2ccccc2Sc2ccccc21 [2-(4H-1,2,4-triazol-3-ylthio)-1-(10H-phenothiazin-10-yl)ethanone] | LCK |  |  |
| Cc1cccc(C)c1NCc1nnc(SCC(=O)Nc2ccccc2-c2ccccc2)n1C | LCK |  |  |
| CCCCSc1nnc(COc2ccc(Cl)cc2)[nH]1 [3-(butylthio)-5-((4-chlorophenoxy)methyl)-4H-1,2,4-triazole] |  | FLT-3 |  |
| Cc1ccc([N+](=O)[O-])cc1NC(=O)CSc1nnc(-c2ccc([N+](=O)[O-])cc2)n1C | PDGFRR-α |  |  |
| Cc1nnc(SCC(=O)c2ccc3c(c2)OCCO3)[nH]1 | GSK3-α; also recorded: GSK3-β; also recorded: DYRK2 |  |  |
| CCn1c(Cc2ccccc2)nnc1SCC(=O)N1CCCc2ccccc21 | FYN |  |  |
| COc1ccccc1-n1c(SCc2ccc(C(=O)O)cc2)nnc1-c1cccc(Cl)c1 |  | AURORA-A |  |
| CCn1c(SCc2cc(=O)[nH]c3ccccc23)nnc1-c1cc2ccccc2cc1O |  | AURORA-A |  |
| CCn1c(CNc2cccc(C(F)(F)F)c2)nnc1SCC#N | CDK2 and CDK1 and CHEK2 |  |  |
| Cn1c(S)nnc1CCc1nc2ccccc2[nH]1 [5-(2-(1H-benzo[d]imidazol-2-yl)ethyl)-4-methyl-4H-1,2,4-triazole-3-thiol] | GSK3-α; also recorded: GSK3-β |  |  |
| O=C(CSc1nnc(CC2CCCCC2)n1-c1ccccc1)OCc1ccccc1 [benzyl 2-(5-(cyclohexylmethyl)-4-phenyl-4H-1,2,4-triazol-3-ylthio)acetate] | PDK1 and HCK |  |  |

| Structure (SMILES) | Kinase (test compound 10 μM) | protein kinase against which the compound exhibits inhibitory activity (Table 3) [1] | further results |
| --- | --- | --- | --- |
| Cn1c(CNc2ccc(F)cc2)nnc1SCc1c(Cl)cccc1Cl |  | GSK3-β; also recorded: GSK3-α |  |
| COc1ccc(CCNC(=O)CSc2nnc(-c3cc4ccccc4cc3O)n2C)cc1OC | FYN |  |  |
| CC(=O)c1ccc(NC(=O)CSc2nnc(C)n2-c2ccccc2)cc1 | AKT1 |  |  |
| COc1ccccc1-n1c(SCc2csc(C)n2)nnc1-c1cccc(Cl)c1 |  | ROCK2 |  |
| COc1ccc(NCc2nnc(SCC#N)n2-c2ccc(C)cc2)cc1 | FYN and PDGFRR-α and AURORA-A |  |  |
| Cn1c(SCSC#N)nnc1-c1ccc(S(=O)(=O)N2CCOCC2)cc1 | GSK3-β |  |  |
| CS(=O)(=O)c1ccc(CSc2nnc(-c3ccc(Cl)c(Cl)c3)[nH]2)cc1 [3-(3,4-dichlorophenyl)-5-(4-(methylsulfonyl)benzylthio)-4H-1,2,4-triazole] |  | AURORA-A; also recorded: FLT-3 |  |
| CC(C)=CCSc1nnc(C)n1Cc1ccco1 [4-(furan-2-ylmethyl)-3-methyl-5-(3-methylbut-2-enylthio)-4H-1,2,4-triazole] |  | GSK3-β; also recorded: GSK3-α |  |
| c1ccc2[nH]c(CSc3nnc(C4CCCC4)[nH]3)nc2c1 [2-((5-cyclopentyl-4H-1,2,4-triazol-3-ylthio)methyl)-1H-benzo[d]imidazole] |  | GSK3-α; also recorded: AURORA-A; also recorded: DYRK2 |  |
| CCSc1nnc(-c2ccc([N+](=O)[O-])cc2)n1C [3-(ethylthio)-4-methyl-5-(4-nitrophenyl)-4H-1,2,4-triazole] |  | PDGFRR-α and FYN |  |
| CNC(=O)CSc1nnc(COc2ccccc2)n1Cc1ccccc1 | FYN |  |  |
| Cn1c(S)nnc1-c1ccc(O)cc1 [4-(5-mercapto-4-methyl-4H-1,2,4-triazol-3-yl)phenol] | CDK5 and CDK2-cyclinA and CDK2-cyclinE |  |  |
| N#CCSc1nnc(C2CCCCC2)n1-c1ccccc1 [2-(5-cyclohexyl-4-phenyl-4H-1,2,4-triazol-3-ylthio)acetonitrile] | CHEK2 |  |  |
| C=CCn1c(Sc2c(O)nc3ccccc3c2-c2ccccc2)nnc1-c1ccc(Cl)c(Cl)c1 | FLT-3 |  |  |
| CC(C)N(C(=O)CSc1nnc(-c2ccccc2N)n1C)C(C)C | FYN and PRAK |  |  |
| COc1ccccc1-n1c(SCCCCc2ccccc2)nnc1-c1ccc(N)nc1 |  |  | protein kinase against which the compound exhibits inhibitory activity (Table 3): MAPKAPK-3 |
| COc1ccc(-n2c(COc3ccccc3OC)nnc2SCCC(=O)O)cc1 |  | CDK1 |  |
| CCn1c(CNc2ccc(Cl)cc2)nnc1SCC#N | LYNA and DYRK2 |  |  |
| COc1ccc(-n2c(SC(C)C(=O)O)nnc2-c2ccc(NC(=O)c3ccccc3)cc2)cc1 (stereo not shown) | CHEK2; also recorded: AURORA-A |  |  |
| COCCn1c(S)nnc1COc1ccc(Cl)cc1 [5-((4-chlorophenoxy)methyl)-4-(2-methoxyethyl)-4H-1,2,4-triazole-3-thiol] | GSK3-α |  |  |
| Oc1ccccc1-c1nnc(SCc2ccc(F)cc2)n1Cc1ccccc1 [2-(4-benzyl-5-(4-fluorobenzylthio)-4H-1,2,4-triazol-3-yl)phenol] |  | AURORA-A |  |
| c1cncc(-c2nnc(SCC3CCCO3)[nH]2)c1 (stereo not shown) [3-(5-((tetrahydrofuran-2-yl)methylthio)-4H-1,2,4-triazol-3-yl)pyridine] |  | AURORA-A |  |

| Structure (SMILES) | Kinase (test compound 10 μM) | protein kinase against which the compound exhibits inhibitory activity (Table 3) [1] | further results |
| --- | --- | --- | --- |
| CCn1c(SCC#N)nnc1-c1ccc(S(=O)(=O)N2CCOCC2)cc1 | AURORA-A |  |  |
| Cc1cccc(NCc2nnc(S)n2-c2ccccc2)c1 [5-((m-toluidino)methyl)-4-phenyl-4H-1,2,4-triazole-3-thiol] | GSK3-α |  |  |
| CCn1c(CNc2ccc(C)cc2)nnc1SCC#N [2-(5-((p-toluidino)methyl)-4-ethyl-4H-1,2,4-triazol-3-ylthio)acetonitrile] | PDGFRR-α and CDK1 |  |  |
| Cn1c(SCC(=O)Nc2nc3c(s2)CCCC3)nnc1C1CC1 | CDK2-cyclinE |  |  |
| COc1ccccc1-n1c(SCCC(=O)O)nnc1C1CCCCC1 |  | GSK3-α |  |
| COc1ccccc1-n1c(SCC(=O)N2CCCC2)nnc1-c1ccccc1O |  | PRAK |  |
| COc1cccc(OC(=O)CSc2nnc(CNc3c(C)cccc3C)n2-c2ccccc2)c1 | C-TAK1 |  |  |
| O=C1c2ccccc2C(=O)N1CCSc1nnc(-c2ccccc2)[nH]1 [2-(2-(5-phenyl-4H-1,2,4-triazol-3-ylthio)ethyl)isoindoline-1,3-dione] |  | AURORA-A; also recorded: GSK3-β; also recorded: GSK3-α |  |
| COC(=O)c1ccccc1NC(=O)CSc1nnc(-c2ccc(O)cc2)n1C | GSK3-β; also recorded: GSK3-α |  |  |
| COC(=O)c1sc(NC(=O)CSc2nnc(-c3ccco3)n2C)nc1C | GSK3-β; also recorded: GSK3-α |  |  |
| CCC(c1ccccc1)c1nnc(SCc2ccc(C(=O)OC)cc2)[nH]1 (stereo not shown) [methyl 4-((5-(1-phenylpropyl)-4H-1,2,4-triazol-3-ylthio)methyl)benzoate] |  | FLT-3 |  |
| COC(=O)c1ccccc1NC(=O)CSc1nnc(-c2ccccc2O)n1CCc1ccccc1 | AURORA-A |  |  |
| CCOCCSc1nnc(-c2ccc([N+](=O)[O-])cc2)[nH]1 |  | FLT-3; also recorded: AURORA-A; also recorded: GSK3-α |  |
| COc1ccccc1-n1c(SCC(=O)Nc2cccc(C(=O)O)c2)nnc1-c1ccccc1O | AURORA-A |  |  |
| OCC(O)CSc1nnc(-c2cccc(Cl)c2)[nH]1 (stereo not shown) [3-(5-(3-chlorophenyl)-4H-1,2,4-triazol-3-ylthio)propane-1,2-diol] |  | AURORA-A; also recorded: FLT-3; also recorded: CHEK2 |  |
| CCN(CC)S(=O)(=O)c1ccc(-c2nnc(SCC(=O)N3c4ccccc4CCc4ccccc43)n2CC)cc1 |  | DAPK1 |  |
| COc1ccc(-c2nnc(SCc3cccc(I)c3)[nH]2)cc1 [3-(3-iodobenzylthio)-5-(4-methoxyphenyl)-4H-1,2,4-triazole] |  | AURORA-A |  |
| COC(=O)c1ccc(CSc2nnc(-c3cccs3)[nH]2)cc1 [methyl 4-((5-(thiophen-2-yl)-4H-1,2,4-triazol-3-ylthio)methyl)benzoate] |  | AURORA-A; also recorded: FLT-3; also recorded: c-TAK1 |  |
| O=C(CSc1nnc(-c2cccnc2)n1-c1ccccc1)CC(=O)Nc1ccccc1 | AURORA-A |  |  |
| Sc1nnc(-c2ccncc2)n1-c1ccccc1 [4-phenyl-5-(pyridin-4-yl)-4H-1,2,4-triazole-3-thiol] | LCK |  |  |
